Assay: Precipitation of alfaxalone from alfaxalone/2-hydroxypropyl-β-cyclodextrin complex solution on adding preservative without co-solvent
Assay type: physicochemical
Details: upwards to 1% w/v (typical content); no co-solvent

## OCc1ccccc1 [benzyl alcohol]
  benzyl alcohol content at which significant precipitation occurs (titration): ≥ 0.2 % w/v

From US9492552B2, “Injectable aqueous pharmaceutical compositions comprising a cyclodextrin, a hydrophobic drug, a co-solvent, and a preservative” (JUROX PTY LTD, priority 2011, dated 2016)
